# Experimental data: patent US10112934B2, “(Cyano-dimethyl-methyl)-isoxazoles and -[1,3,4]thiadiazoles” (Centrexion Therapeutics Corporation, priority 2013, dated 2018)
# Target: human CB1R (Homo sapiens (Human), UniProt P21554)
# Test: CB1 cAMP (assay 2)
# Type: cell-based
# Details: CHO cells expressing human CB1R; inhibition of forskolin-stimulated cAMP
# Chain of human CB1R (P21554 whole entry): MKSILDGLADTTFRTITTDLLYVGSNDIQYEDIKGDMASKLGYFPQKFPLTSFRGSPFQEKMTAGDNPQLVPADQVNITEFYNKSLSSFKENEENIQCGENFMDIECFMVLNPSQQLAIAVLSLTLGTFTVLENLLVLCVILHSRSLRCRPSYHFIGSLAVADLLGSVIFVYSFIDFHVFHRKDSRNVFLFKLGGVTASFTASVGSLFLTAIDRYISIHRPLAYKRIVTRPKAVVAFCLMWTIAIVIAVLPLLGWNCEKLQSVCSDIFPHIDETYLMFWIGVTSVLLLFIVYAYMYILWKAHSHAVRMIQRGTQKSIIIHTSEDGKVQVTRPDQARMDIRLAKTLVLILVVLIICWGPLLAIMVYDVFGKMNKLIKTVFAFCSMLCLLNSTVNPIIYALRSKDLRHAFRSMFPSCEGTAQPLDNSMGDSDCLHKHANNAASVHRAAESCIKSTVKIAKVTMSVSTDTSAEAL
row,Structure (SMILES),EC50 [µM]
1,COCC(C)(C)c1cc(NC(=O)C(C)(C)S(=O)(=O)C2CCOCC2)on1 [Example 38 in WO2010036630],50
2,CC(C)(CO)c1cc(NC(=O)C(C)(C)S(=O)(=O)CC2CCOCC2)on1 [Example 1 in WO2010036630],> 50

# Target: human MDR1 P-gp (Homo sapiens (Human), UniProt P08183)
# Sequence (P08183 whole entry): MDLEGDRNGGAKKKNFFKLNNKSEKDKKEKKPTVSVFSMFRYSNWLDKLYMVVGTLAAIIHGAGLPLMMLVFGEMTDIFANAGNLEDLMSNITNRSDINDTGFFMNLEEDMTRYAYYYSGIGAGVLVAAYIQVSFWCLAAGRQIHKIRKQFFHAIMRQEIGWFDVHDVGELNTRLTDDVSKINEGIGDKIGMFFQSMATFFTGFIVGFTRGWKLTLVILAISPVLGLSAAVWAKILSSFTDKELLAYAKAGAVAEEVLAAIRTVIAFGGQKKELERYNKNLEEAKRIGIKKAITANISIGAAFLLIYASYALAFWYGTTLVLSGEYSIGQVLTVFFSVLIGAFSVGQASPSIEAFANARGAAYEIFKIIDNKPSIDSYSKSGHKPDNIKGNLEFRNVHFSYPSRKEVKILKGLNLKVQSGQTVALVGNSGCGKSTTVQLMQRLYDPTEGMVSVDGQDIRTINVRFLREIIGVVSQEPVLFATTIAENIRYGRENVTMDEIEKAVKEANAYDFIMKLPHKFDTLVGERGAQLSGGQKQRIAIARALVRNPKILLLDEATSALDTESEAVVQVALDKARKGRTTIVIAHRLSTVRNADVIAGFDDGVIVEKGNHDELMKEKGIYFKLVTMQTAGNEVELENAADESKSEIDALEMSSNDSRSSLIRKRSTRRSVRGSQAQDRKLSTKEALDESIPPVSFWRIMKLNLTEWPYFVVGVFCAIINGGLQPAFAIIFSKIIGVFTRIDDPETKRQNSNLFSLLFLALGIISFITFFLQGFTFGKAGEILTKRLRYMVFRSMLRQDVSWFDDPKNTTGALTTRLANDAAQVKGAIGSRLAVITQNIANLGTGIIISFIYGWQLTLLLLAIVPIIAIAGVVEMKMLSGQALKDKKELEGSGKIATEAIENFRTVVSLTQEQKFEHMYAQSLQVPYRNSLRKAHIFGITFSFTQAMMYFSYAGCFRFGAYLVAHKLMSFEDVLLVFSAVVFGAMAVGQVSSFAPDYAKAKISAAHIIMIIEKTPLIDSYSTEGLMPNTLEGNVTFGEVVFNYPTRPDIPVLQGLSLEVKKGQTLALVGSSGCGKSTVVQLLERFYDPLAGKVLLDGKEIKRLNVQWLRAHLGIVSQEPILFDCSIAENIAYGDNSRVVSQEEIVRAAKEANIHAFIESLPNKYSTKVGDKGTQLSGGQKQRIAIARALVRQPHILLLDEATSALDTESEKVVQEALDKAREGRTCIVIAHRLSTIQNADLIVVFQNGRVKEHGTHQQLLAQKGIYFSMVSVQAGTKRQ
# Test: MDCK assay: efflux in MDCK cells transfected with the human MDR1 gene (assay 3)
# Type: in vitro ADME
# Details: MDCK-MDR1 cell monolayers, pH 7.4, 37° C., read-out: MDCK efflux ratio (BA/AB)
# Description: C. Assessment of Efflux in Madin-Darby Canine Kidney Cells Transfected with the Human MDR1 Gene (MDCK Assay) (Assay 3)
# Apparent permeability coefficients (PE) of the compounds across the MDCK-MDR1 cell monolayers are measured (pH 7.4, 37° C.) in apical-to-basal (AB) and basal-to-apical (BA) transport direction. AB permeability (PEAB) represents drug absorption from the blood into the brain and BA permeability (PEBA) drug efflux from the brain back into the blood via both passive permeability as well as active transport mechanisms mediated by efflux and uptake transporters that are expressed on the MDCK-MDR1 cells, predominantly by the overexpressed human MDR1 P-gp. The compounds are assigned to permeability/absorption classes by comparison of the AB permeabilities with the AB permeabilities of reference compounds with known in vitro permeability and oral absorption in the human. Identical or similar permeabilities in both transport directions indicate passive permeation, vectorial permeability points to additional active transport mechanisms. Higher PEBA than PEAB indicates the involvement of active efflux mediated by MDR1 P-gp. Active transport is concentration-dependently saturable.
# MDCK-MDR1 cells (1-2×10e5 cells/1 cm2 area) are seeded on filter inserts (Costar transwell polycarbonate or PET filters, 0.4 μm pore size) and cultured (DMEM) for 7 days. Subsequently, the MDR1 expression is boosted by culturing the cells with 5 mM sodium butyrate in full medium for 2 days. Compounds are dissolved in appropriate solvent (like DMSO, 1-20 mM stock solutions). Stock solutions are diluted with HTP-4 buffer (128.13 mM NaCl, 5.36 mM KCl, 1 mM MgSO4, 1.8 mM CaCl2, 4.17 mM NaHCO3, 1.19 mM Na2HPO4×7H2O, 0.41 mM NaH2PO4×H2O, 15 mM HEPES, 20 mM glucose, 0.25% BSA, pH 7.4) to prepare the transport solutions (0.1-300 μM compound, final DMSO<=0.5%). The transport solution (TL) is applied to the apical or basolateral donor side for measuring A-B or B-A permeability (3 filter replicates), respectively. The receiver side contains the same buffer as the donor side. Samples are collected at the start and end of experiment from the donor and at various time intervals for up to 2 hours also from the receiver side for concentration measurement by HPLC-MS/MS or scintillation counting. Sampled receiver volumes are replaced with fresh receiver solution.
row,Structure (SMILES),efflux ratio
1,CN(CC1CCOCC1)C(C)(C)C(=O)Nc1nnc(C(C)(C)CO)s1 [Example 30 in WO2010147792],5.2
2,CC(C)(O)c1cc(NC(=O)C(C)(C)S(=O)(=O)C2CCOCC2)on1 [Example 133 WO2010036630],4.7
3,COCC(C)(C)c1cc(NC(=O)C(C)(C)S(=O)(=O)C2CCOCC2)on1 [Example 38 in WO2010036630],2.3
4,CN(C1CCN(S(C)(=O)=O)CC1)C(C)(C)C(=O)Nc1cc(C(C)(C)C#N)no1 [Example 5],5.1
5,CN(CC1CCOCC1)C(C)(C)C(=O)Nc1cc(C(C)(C)C#N)no1 [Example 4],0.75
6,COCC(C)(C)c1cc(NC(=O)C(C)(C)S(=O)(=O)CC2CCOCC2)on1 [Example 17 in WO2010036630],4.8
7,"CN(CC1CCOCC1)C(C)(C)C(=O)Nc1nnc(C(C)(C)C#N)s1 [Example 7, N-[5-(Cyano-dimethyl-methyl)-[1,3,4]thiadiazol-2-yl]-2-methyl-2-[methyl-(tetrahydro-pyran-4-ylmethyl)-amino]-propionamide]",2.1
8,CC(C)(C#N)c1cc(NC(=O)C(C)(C)S(=O)(=O)C2CCOCC2)on1 [Example 3],2.5
9,CN(CC1CCOCC1)C(C)(C)C(=O)Nc1cc(C(C)(C)CO)no1 [Example 7 in WO2010147792],1.2
10,CC(C)(CO)c1cc(NC(=O)C(C)(C)S(=O)(=O)C2CCOCC2)on1 [Example 2 in WO2010036630],7.4
11,CC(C)(CO)c1cc(NC(=O)C(C)(C)S(=O)(=O)CC2CCOCC2)on1 [Example 1 in WO2010036630],16
12,COCC(C)(C)c1cc(NC(=O)C(C)(C)N(C)CC2CCOCC2)on1 [Example 46 in WO2010147792],0.63
13,"CC(C)(C#N)c1cc(NC(=O)C(C)(C)S(=O)(=O)CC2CCOCC2)on1 [Example 2, N-[3-(Cyano-dimethyl-methyl)-isoxazol-5-yl]-2-methyl-2-(tetrahydro-pyran-4-ylmethanesulfonyl)-propionamide]",6.5
14,CN(C1CCN(S(C)(=O)=O)CC1)C(C)(C)C(=O)Nc1cc(C(C)(C)CO)no1 [Example 47 in WO2010147792],14
15,"CC(C)(C#N)c1cc(NC(=O)C(C)(C)S(=O)(=O)CCCC(F)(F)F)on1 [Example 1, N-[3-(Cyano-dimethyl-methyl)-isoxazol-5-yl]-2-methyl-2-(4,4,4-trifluoro-butane-1-sulfonyl)-propionamide]",2.2
16,CN(C1CCN(S(C)(=O)=O)CC1)C(C)(C)C(=O)Nc1nnc(C(C)(C)C#N)s1 [Example 8],16
